# According to US20240299348A1, “MODULATORS OF TRPML, THEIR COMPOSITIONS AND METHODS OF USE” (Caraway Therapeutics, Inc., priority 2021, published 2024):
# Experiments:
# Assay type in all cases: cell-based
# [1] = target: hTRPML1 (Homo sapiens, UniProt Q9GZU1); assay: TRPML1 fluorescent (Fluo-4) assay; parameters: Secondary Screening: Fluo-4: hTRPML1: EC50 (M); HEK-293 Trex cells expressing hTRPML1; conditions: activation; HEK-293 Trex cells expressing hTRPML1; read-out: Secondary Screening: Fluo-4: hTRPML1: EC50
# hTRPML1, sequence (Q9GZU1 whole entry L15A/L16A/L577A/L578A, form open): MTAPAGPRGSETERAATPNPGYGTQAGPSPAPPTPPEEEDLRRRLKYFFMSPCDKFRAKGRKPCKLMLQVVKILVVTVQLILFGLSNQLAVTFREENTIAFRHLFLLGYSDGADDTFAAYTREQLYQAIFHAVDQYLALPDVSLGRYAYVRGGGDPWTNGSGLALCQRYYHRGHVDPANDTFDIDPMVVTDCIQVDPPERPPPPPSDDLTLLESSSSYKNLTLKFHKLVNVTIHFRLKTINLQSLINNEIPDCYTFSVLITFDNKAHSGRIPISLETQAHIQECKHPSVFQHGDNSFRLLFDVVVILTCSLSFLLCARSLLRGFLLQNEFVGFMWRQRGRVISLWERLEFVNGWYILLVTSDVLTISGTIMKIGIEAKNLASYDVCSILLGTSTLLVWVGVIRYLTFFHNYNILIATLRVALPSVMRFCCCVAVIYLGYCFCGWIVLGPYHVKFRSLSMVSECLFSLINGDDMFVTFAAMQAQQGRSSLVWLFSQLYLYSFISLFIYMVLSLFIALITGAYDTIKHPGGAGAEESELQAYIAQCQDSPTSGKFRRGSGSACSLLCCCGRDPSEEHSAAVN
# Description: HEK-293 Trex cells were stably transfected with a construct consisting of the human coding sequence for TRPML1 cloned into the […] plasmid pCDNA5 T/O. Mutations were introduced into the TRPML1 sequence to facilitate expression on the cell surface (Silvia Vergarajauregui, Rosa Puertollano Traffic. 2006 March; 7(3): 337-353). Briefly, the cells are cultured in 150 mm round tissue culture dishes containing 20 mL of media. The day before the assay the cells are rinsed with DPBS—Ca—Mg and then treated briefly with Trypsin-EDTA. The Trypsin-EDTA is diluted with growth media, and cells are counted. 38×10^6 cells are re-plated into 150 mm round tissue culture dishes in media containing 0.5 ug/mL doxycycline to induce expression of hTRPML1.
# The day of the experiment cells are lifted from the plates as above and collected by centrifugation. The cells are then suspended in dye loading buffer consisting of Ringer's solution supplemented with 0.1% Pluronic Acid and 1 micromolar Fluo4-AM dye. Cells are loaded for ˜60 minutes in the dark with occasional mixing. The cells are collected by centrifugation, the loading media aspirated, and the cells resuspended in 25 mL Ringer's solution and incubated ˜60 minutes in the dark. The cells are again collected by centrifugation, rinsed in Ringer's Solution and resuspended to 0.2×10^6 cells/mL in modified Ringer's solution containing 10 mM calcium.
# Compounds are dissolved to a concentration of 10 millimolar with DMSO. Compound plates are created by dispensing compounds into 384 well black wall clear bottom plates (Greiner 781091). Positive and negative controls are included on each plate. Typically, different amounts of each compound are tested ranging from 100 nanoMoles (20 micromolar final concentration) decreasing in half-log steps to 31 picoMoles (6 nanomolar final concentration). Each concentration is typically tested in triplicate.
# 50 microliters of dye-loaded cells are dispensed into each well of the compound assay plate created above. The fluorescence in each well is then determined with an excitation wavelength of 480 nm and an emission wavelength of 540 nm using either a Molecular Devices SpectraMax multimode plate reader or a Hamamatsu FDSS/uCell plate imager.
# The resulting fluorescence for each well is exported as an ascii file and loaded into our LIMS for analysis. The percent activity of each compound at each concentration is determined by comparison to the positive and negative control wells included in each plate.
# (§1) EC50 values were calculated using a non-linear regression of Prism.
# [2] = target: T1, hTRPML2 (Homo sapiens, UniProt Q8IZK6); assay: TRPML2 fluorescent (Fluo-4) assay; conditions: activation; read-out: Secondary Screening: Fluo-4: hTRPML2: EC50
# T1 construct: expressed in transfected cells; host or cells: HEK-293 Trex (by analogy, 'performed as above')
# T1 sequence (Q8IZK6 1-566): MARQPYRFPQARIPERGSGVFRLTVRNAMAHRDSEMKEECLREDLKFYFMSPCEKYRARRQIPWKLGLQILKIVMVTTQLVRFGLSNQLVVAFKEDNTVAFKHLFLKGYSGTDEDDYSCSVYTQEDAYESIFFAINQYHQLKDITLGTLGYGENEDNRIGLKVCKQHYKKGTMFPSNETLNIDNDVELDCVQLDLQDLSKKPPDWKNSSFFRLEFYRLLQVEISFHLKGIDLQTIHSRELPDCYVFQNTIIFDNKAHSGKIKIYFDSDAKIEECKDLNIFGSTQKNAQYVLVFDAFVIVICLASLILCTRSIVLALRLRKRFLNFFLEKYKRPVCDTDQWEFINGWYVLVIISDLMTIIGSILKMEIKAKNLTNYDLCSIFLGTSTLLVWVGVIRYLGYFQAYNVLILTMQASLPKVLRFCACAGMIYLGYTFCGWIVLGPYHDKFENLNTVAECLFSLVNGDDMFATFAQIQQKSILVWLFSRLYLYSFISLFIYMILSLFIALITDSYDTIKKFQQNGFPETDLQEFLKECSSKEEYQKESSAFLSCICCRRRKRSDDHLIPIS
# Description: (§2) Assays for TRPML2 and TRPML3 were performed as above for TRPML1, by substituting the appropriate TRPML2 or TRPML3 subtype for the TRPML1.
# as §1
# [3] = target: T2, hTRPML3 (Homo sapiens, UniProt Q8TDD5); assay: TRPML3 fluorescent (Fluo-4) assay; conditions: activation; read-out: Secondary Screening: Fluo-4: hTRPML3: EC50
# T2 construct: expressed in transfected cells; host or cells: HEK-293 Trex (by analogy, 'performed as above')
# T2 sequence (Q8TDD5 1-553): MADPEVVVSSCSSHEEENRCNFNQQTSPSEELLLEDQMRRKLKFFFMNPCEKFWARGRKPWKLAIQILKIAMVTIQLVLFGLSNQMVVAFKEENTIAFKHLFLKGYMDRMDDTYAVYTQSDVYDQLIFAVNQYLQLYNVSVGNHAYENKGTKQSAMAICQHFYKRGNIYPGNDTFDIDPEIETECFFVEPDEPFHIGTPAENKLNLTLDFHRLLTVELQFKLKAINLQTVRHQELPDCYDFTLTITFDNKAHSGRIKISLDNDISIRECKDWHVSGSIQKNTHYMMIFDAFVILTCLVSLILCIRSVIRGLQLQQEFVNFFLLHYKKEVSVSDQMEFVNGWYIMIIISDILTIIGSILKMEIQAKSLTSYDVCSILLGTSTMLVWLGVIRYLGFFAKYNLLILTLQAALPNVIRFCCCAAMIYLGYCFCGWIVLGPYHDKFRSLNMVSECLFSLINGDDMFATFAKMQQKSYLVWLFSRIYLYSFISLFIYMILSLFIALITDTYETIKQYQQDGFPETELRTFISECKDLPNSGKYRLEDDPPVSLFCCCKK
# Description: as §2, §1
Structure (SMILES),EC50 [1],EC50 [2],EC50 [3]
"CN(c1ccc(Cl)cc1F)C1CCN(c2ccccc2NS(=O)(=O)c2ccc(S(=O)(=O)N(C)C)cc2)C1 (stereo not shown) [Compound 104, N^1-(2-(3-((4-chloro-2-fluorophenyl)(methyl)amino)pyrrolidin-1-yl)phenyl)-N^4,N^4-dimethylbenzene-1,4-disulfonamide]",< 0.3 µM,–,–
"CN(C)S(=O)(=O)c1ccc(S(=O)(=O)N[C@@H]2CCCCC[C@H]2N2CCN(c3ccc(Cl)cc3F)CC2)cc1 (relative stereo) [Compound 120, trans-N^1-(2-(4-(4-chloro-2-fluorophenyl)piperazin-1-yl)cycloheptyl)-N^4,N^4 dimethylbenzene-1,4-disulfonamide]",< 0.3 µM,1 to 5 µM,0.3 to 1 µM
"CN(C)S(=O)(=O)c1ccc(S(=O)(=O)Nc2ccccc2C2CCN(c3ccc(Cl)cc3F)CC2)cc1 [Compound 108, N^1-(2-(1-(4-chloro-2-fluorophenyl)piperidin-4-yl)phenyl)-N^4,N^4-dimethylbenzene-1,4-disulfonamide]",1 to 5 µM,–,0.3 to 1 µM
"CN(C1CCCC[C@@H]1NS(=O)(=O)c1ccc(S(=O)(=O)N(C)C)cc1)[C@@H]1CCN(c2ccc(Cl)cc2F)C1 (stereo partly drawn) [Compound 118, trans-N^1-(2-(((R)-1-(4-Chloro-2-fluorophenyl)pyrrolidin-3-yl)(methyl)amino)cyclohexyl)-N^4,N^4-dimethylbenzene-1,4-disulfonamide]",< 0.3 µM,> 5 µM,–
"CN(c1ccccc1NS(=O)(=O)c1ccc(S(=O)(=O)N(C)C)cc1)C1CCN(c2ccccc2F)C1 (stereo not shown) [Compound 112, N^1-(2-((1-(2-Fluorophen-yl)pyrrolidin-3-yl)(meth-yl)amino)phenyl)-N^4,N^4-dimethylbenzene-1,4-disulfonamide]",0.3 to 1 µM,–,< 0.3 µM
"Cc1ccc(S(=O)(=O)N[C@H]2CCCC[C@@H]2N2CCN(c3ccc(Cl)cc3F)CC2)cc1 (relative stereo) [Compound 117, trans-N-(2-(4-(4-chloro-2-fluoro-phenyl)piperazin-1-yl)cyclohexyl)-4-methylbenzene-sulfonamide]",0.3 to 1 µM,–,< 0.3 µM
"CN(C)S(=O)(=O)c1ccc(S(=O)(=O)N[C@H]2CCCC[C@@H]2N2CCN(c3ccc(Cl)cc3F)CC2)cc1 [Compound 105, N^1-((1S,2S)-2-(4-(4-chloro-2-fluorophenyl)piperazin-1-yl)cyclohexyl)-N^4,N^4-dimethylbenzene-1,4-disulfonamide]",0.3 to 1 µM,–,–
"CN([C@H]1CCN(c2ccc(Cl)cc2F)C1)[C@H]1CCCC[C@@H]1NS(=O)(=O)c1ccc(S(=O)(=O)N(C)C)cc1 (stereo in doubt) [Compound 119, trans-N^1-(2-(((S)-1-(4-chloro-2-fluorophenyl)-pyrrolidin-3-yl)(methyl)-amino)cyclohexyl)-N^4,N^4-dimethylbenzene-1,4-disulfonamide]",< 0.3 µM,> 5 µM,–
"CN(C)S(=O)(=O)c1ccc(S(=O)(=O)N[C@H]2CCCC[C@H]2N2CCN(c3ccc(Cl)cc3F)CC2)cc1 (stereo in doubt) [Compound 109, N^1-((1S,2R)-2-(4-(4-Chloro-2-fluorophenyl)piperazin-1-yl)cyclohexyl)-N^4,N^4-dimethylbenzene-1,4-disulfonamide]",1 to 5 µM,–,0.3 to 1 µM
"CN(c1ccccc1NS(=O)(=O)c1ccc(S(=O)(=O)N(C)C)cc1)C1CCN(C(=O)OC(C)(C)C)C1 (stereo not shown) [Compound 114, tert-butyl 3-((2-((4-(N,N-dimethylsulfamoyl)phenyl)sulfonamido)phenyl)(methyl)amino)pyrrolidine-1-carboxylate]",1 to 5 µM,–,0.3 to 1 µM
"CN(C)S(=O)(=O)c1ccc(S(=O)(=O)Nc2ccccc2N2C[C@H]3C[C@@H]2CN3c2ccc(Cl)cc2F)cc1 [Compound 107, N^1-(2-((1R,4R)-5-(4-chloro-2-fluorophenyl)-2,5-diazabicyclo[2.2.1]heptan-2-yl)phenyl)-N^4,N^4-dimethylbenzene-1,4-disulfonamide]",0.3 to 1 µM,–,–
"CN(C)S(=O)(=O)c1ccc(S(=O)(=O)Cc2ccccc2N2CCN(c3ccc(Cl)cc3F)CC2)cc1 [Compound 106, 4-(2-(4-(4-Chloro-2-fluorophenyl)piperazin-1-yl)benzylsulfonyl)-N,N-dimethylbenzenesulfonamide]",< 0.3 µM,–,–
"CN(c1ccccc1NS(=O)(=O)c1ccc(S(=O)(=O)N(C)C)cc1)[C@H]1CCN(c2ccc(Cl)cc2F)C1 [Compound 110, (S)-N^1-(2-((1-(4-chloro-2-fluorophenyl)pyrrolidin-3-yl)(methyl)amino)phenyl)-N^4,N^4-dimethylbenzene-1,4-disulfonamide]",< 0.3 µM,–,< 0.3 µM
"CN(C)S(=O)(=O)c1ccc(S(=O)(=O)Nc2ccccc2N2CCN(C34CC(C3)C4)CC2)cc1 [Compound 115, N^1-(2-(4-(bicyclo[1.1.1]pentan-1-yl)piperazin-1-yl)phenyl)-N^4,N^4-dimethylbenzene-1,4-disulfonamide]",1 to 5 µM,–,0.3 to 1 µM
"CN(C)S(=O)(=O)c1ccc(S(=O)(=O)Nc2ccccc2N2CCC3(CCN(c4ccc(Cl)cc4F)C3)C2)cc1 (stereo not shown) [Compound 103, N^1-(2-(7-(4-chloro-2-fluorophenyl)-2,7-diazaspiro[4.4]nonan-2-yl)phenyl)-N^4,N^4-dimethylbenzene-1,4-disulfonamide]",0.3 to 1 µM,–,–
"CN(c1ccccc1NS(=O)(=O)c1ccc(S(=O)(=O)N(C)C)cc1)[C@@H]1CCN(c2ccc(Cl)cc2F)C1 [Compound 111, (R)-N^1-(2-((1-(4-chloro-2-fluorophenyl)pyrrolidin-3-yl)(methyl)amino)phenyl)-N^4,N^4-dimethylbenzene-1,4-disulfonamide]",0.3 to 1 µM,–,< 0.3 µM
"CN(C)S(=O)(=O)c1ccc(S(=O)(=O)Nc2ccccc2N2CCC3(CN(c4ccc(Cl)cc4F)C3)C2)cc1 [Compound 102, N^1-(2-(2-(4-chloro-2-fluorophenyl)-2,6-diazaspiro[3.4]octan-6-yl)phenyl)-N^4,N^4-dimethylbenzene-1,4-disulfonamide]",0.3 to 1 µM,–,–
"CN(C)S(=O)(=O)c1ccc(S(=O)(=O)N[C@H]2CCCC[C@@H]2N2CCN(c3ccccc3F)CC2)cc1 (relative stereo) [Compound 116, trans-N^1-(2-(4-(2-fluorophenyl)piperazin-1-yl)cyclohexyl)-N^4,N^4-dimethylbenzene-1,4-disulfonamide]",1 to 5 µM,–,0.3 to 1 µM
